# Molecular target: T1, human Syk (GST-Syk) (Homo sapiens, UniProt P43405)
# T1 construct: A cDNA fragment encoding human Syk openreading frame was cloned; made in house; host or cells: Sf21 insect cells (baculovirus, transfer vector pAcG2T)
# Assay: Syk tyrosine kinase inhibitory assay
# Assay type: biochemical
# Conditions: Table 17; IC50 classes; read-out: Activity grade
# Procedure, shortened: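 GST-tagged human Syk from baculovirus/Sf21, 0.65 nM final, with 3 μM biotinylated 30-residue activation-loop peptide and 30 μM ATP in Tris pH 8.0/MgCl2 buffer, 0.25% DMSO; 1 h at room temperature. Phosphopeptide captured on streptavidin, detected by europium-labelled anti-phosphotyrosine 4G10 time-resolved fluorescence.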
row,SMILES,IC50 [nM]
1,COc1ccc(-c2cc3nccn3c(Nc3ccc(CC(N)C(=O)OC(C)C)cc3)n2)cc1OC (stereo not shown) [Example 29],< 500
2,COc1ccc(-c2cc3nccn3c(Nc3ccc(CC(N)C(=O)O)cc3)n2)cc1OC (stereo not shown) [Example 30],< 500
3,COc1ccc(-c2cc3nccn3c(Nc3ccccc3-c3nnn[nH]3)n2)cc1OC [Example 31],< 500
4,COc1ccc(-c2cc3nccn3c(Nc3ccc(N(C)C)cc3C(N)=O)n2)cc1OC [Example 32],< 500
5,COc1ccc(-c2cc3nccn3c(Nc3ccc(N)cc3C(N)=O)n2)cc1OC [Example 33],< 500
6,COc1ccc(-c2cc3nccn3c(-c3ccccc3)n2)cc1OC [Example 34],500 to 2000
7,COc1ccc(-c2cc3nccn3c(Cc3ccccc3)n2)cc1OC [Example 35],2000 to 10000
8,COc1ccc(-c2cc3nccn3c(N(C)c3ccncc3)n2)cc1OC [Example 36],2000 to 10000
9,COc1cc(-c2cc3nccn3c(Nc3ncccc3C(N)=O)n2)ccc1N1CCOCC1 [Example 38],< 500
10,COc1ccc(-c2cc3nccn3c(Nc3ccccc3)n2)cc1N [compound 1],500 to 2000

# Next, values leading:
row,IC50 [nM],SMILES
1,2000 to 10000,COc1ccc(-c2cc3nccn3c(N(C)c3ccccn3)n2)cc1OC [compound 4]
2,< 500,COc1ccc(-c2cc3nccn3c(Nc3ccc(C(=O)N(C)CCO)cc3)n2)cc1OC [compound 6]
3,2000 to 10000,Cc1c(N)cccc1Oc1nc(-c2ccc(OC3CCCC3)c(O)c2)cc2ncnn12 [compound 15]
4,< 500,COc1ccc(-c2cc3nccn3c(Sc3ccc(CCC(=O)N(C)C)cc3)n2)cc1OC [compound 17]

# Same assay, conditions: in vitro; compounds as yielded by solid phase synthesis, purity about 40 to 90%; read-out: Activity grade (IC50 class)
row,SMILES,IC50 [nM]
1,"CCSc1nc(-c2ccc(O)c(OC)c2)cc2nccn12 [material for Example 3, 4-(5-Ethylsulfanyl-imidazo[1,2-c]pyrimidin-7-yl)-2-methoxyphenol]",< 500
2,"CCSc1nc(-c2ccc(O)c(O)c2)cc2nccn12 [material for Example 6, 4-(5-Ethylsulfanyl-imidazo[1,2-c]pyrimidin-7-yl)-benzene-1,2-diol]",2000 to 10000

# — patent US6911443B2 (Bayer Aktiengesellschaft, priority 2000, dated 2005)
